Experimental data published in publication PMC5493638, “Adiponectin is an endogenous anti-fibrotic mediator and therapeutic target” (Scientific Reports, 2017).
Residues, ends and D or L forms follow the SMILES beside them.

Experiments:
C57BL6/J mice = experiment: Bleomycin-induced skin fibrosis in mice; format: in vivo, mouse
Text: (§1) Bleomycin (BLM) or phosphate buffered saline (PBS) was given by daily subcutaneous (s.c.) injection for 14 consecutive days[55]. In some experiments, mice were given a single s.c. injection of adenovirus expressing constitutively-active TGF-ß1 (TGFß1^223/225 3x10^9 PFU/ml) or beta-galactosidase (5x10^9 PFU/ml)[56]. Peritoneal fibrosis was induced by i.p. injections of 0.1% chlorhexidine gluconate (CG; Wako Pure Chemical Industries, Osaka, Japan) dissolved in 15% ethanol/PBS given on alternate days for 21 days[35]. Synthetic peptides targeting AdipoR (ADP355 or ADP27)[37] or vehicle (PBS) at the indicated concentrations were administered by daily i.p. injection for 14 or 24 days. Each experimental group consisted of 4–8 mice, and experiments were repeated at least two times with consistent results. At the end of the experiments, mice were sacrificed and blood and tissue were collected for analysis.
Harvested skin or parietal peritoneal membrane samples were fixed in PFA, embedded in paraffin and 4 μm thick sections were stained with hematoxylin and eosin (H&E). Collagen deposition and organization were assessed using Masson’s Trichrome staining. Thickness of the dermis, dWAT or peritoneal membrane were determined at five randomly selected locations/slide using ImageJ software.
Collagen content of lesional skin was determined by measuring the hydroxyproline content in 6-mm punch biopsy samples (BioVision, Milpitas, CA) (16). Serum levels of adiponectin were determined by ELISA which measures all adiponectin isoforms (Millipore; #EZMADP-60K)[9].
(§2) RNA was isolated from skin samples using RNAeasy Fibrous Tissue Mini kit (Qiagen, Valencia, CA), or from fibroblast cultures, using the RNeasy Plus mini kit (Qiagen), and processed for qPCR as described. mRNA levels were normalized to the levels of 18 S RNA or GAPDH, and the relative amounts were calculated using the 2^−ΔΔCt method.

[1] = system: AMP-activated protein kinase (AMPK); conditions: cited from earlier work
Text: (§3) An alternate potential strategy is to mimic adiponectin biological activity using small molecules.

[2] = system: normal dermal fibroblasts; experiment: TGF-ß-induced fibrotic gene expression in skin fibroblasts (qPCR, Western blot); format: cell-based, human
Text: (§4) Primary cultures of healthy adult and SSc skin fibroblasts, and neonatal fibroblasts, were established by explantation. The clinical features of the subjects are shown in Supplementary Table 5. Protocols for skin biopsies were approved by the Institutional Review Board at Northwestern University. Embryonic fibroblasts from AMP protein kinase (AMPK)^−/− mice and wild-type mice were a gift from Yu-Ying He (University of Chicago). When cultures reached confluence, serum-free media supplemented with 0.1% bovine serum albumin (BSA) were added prior to TGF-β2 (Peprotech, Rocky Hill, NJ) or/and ADP355 (10 μM)[37], and incubation continued for a further 24 h. Cytotoxicity was evaluated using LDH assays (Biovision).
as §2
At the end of the experiments, fibroblasts were harvested and whole cell lysates (100 μg) were subjected to Western-blot analysis[25] using antibodies for Type I collagen (Southern Biotech), α-SMA (Sigma), phospho-Smad2/3 (Cell-Signaling), phospho-FAK (pY397, Cell Signaling), total-FAK (Cell Signaling) or GAPDH (Zymed, San Francisco, CA). […]

skin fibroblasts [3] = experiment: Cytotoxicity, LDH assay; format: cell-based, human; conditions: concentrations of ADP355 used for these experiments (10 μM)
Text: as §4

skin fibroblasts [4] = experiment: In vitro competition binding with labeled peptides; design: species or system human; conditions: unlabeled ADP355 100 μg/ml 10 min, then ADP355-Dy675 5 μg/ml 30 min, confocal microscopy
Protocol: To evaluate in vitro peptide binding, skin fibroblasts seeded on coverslips were preincubated with unlabeled ADP355 (100 μg/ml) for 10 min, followed by labeled ADP355-Dy675 (5 μg/ml), or labeled control peptide (Api88 Dy675, gift from Daniel Knappe, Leipzig, Germany) for 30 min. Cells were fixed in 4% phosphate buffered paraformaldehyde (PFA) and visualized using a Nikon A1 confocal microscope. To evaluate in vivo biodistribution, C57BL6/J mice were injected i.p. with Dy675-coupled peptide (20 μg/mouse or […]) and 10 min later, dorsal skin was harvested and processed for immunofluorescence analysis.

[5] = system: [SBE]4-luc (canonical Smad pathway); experiment: [SBE]4-luc transient transfection reporter assay; format: cell-based, human; conditions: transiently transfected fibroblasts, ADP355 and TGF-β 24 h, luciferase
Protocol: Fibroblasts at early confluence were transfected with [SBE]4-luc plasmids or indicated reporter constructs using SuperFect Transfection (Qiagen)[61]. Cultures were incubated in serum-free media containing 0.1% BSA for 16 h, followed by ADP355 and TGF-β for a further 24 h[61]. Whole cell lysates were assayed for luciferase activities using the dual-luciferase reporter assay system (Promega, Madison, WI). In each experiment, Renilla luciferase pRL-TK (Promega) was cotransfected as control for transfection efficiency. Experiments were performed in triplicate and repeated at least twice with consistent results. For RNAi-mediated transcript silencing, fibroblasts were transfected with target-specific short interfering siRNA specific for AdipoR1/R2 (Dharmacon, Lafayette, CO) or scrambled control siRNA (10 nM, unless otherwise indicated). Twenty-four hours following transfection, fresh media containing TGF-β (2 ng/ml) or ADP355 (10 μM) were added to the cultures and incubation continued for a further 24 h.

phospho-Smad2/3 = experiment: Smad2/3 phosphorylation elicited by TGF-ß (Western); format: cell-based, human; conditions: fibroblasts treated with ADP355
Protocol: (§5) At the end of the experiments, fibroblasts were harvested and whole cell lysates (100 μg) were subjected to Western-blot analysis[25] using antibodies for Type I collagen (Southern Biotech), α-SMA (Sigma), phospho-Smad2/3 (Cell-Signaling), phospho-FAK (pY397, Cell Signaling), total-FAK (Cell Signaling) or GAPDH (Zymed, San Francisco, CA). Electrophoretic bands were detected using enhanced chemiluminescence reagents (Pierce Biotechnology, Rockford, IL), and band intensities were quantified with Image J software. Results were normalized with GAPDH levels in each sample.

[6] = system: normal dermal fibroblasts; experiment: Scratch assay of fibroblast migration; format: cell-based, human; conditions: widths after 48 h
Protocol: Figure 4 ADP355 inhibits fibrotic responses in normal and SSc skin fibroblasts. (a–d). Confluent cultures of normal dermal fibroblasts were preincubated with ADP355, followed by TGF-β2 for 24 h. (a) Total RNA was subjected to real-time qPCR. Results are mean ± SD of triplicate determinations. *p < 0.05, **p < 0.01. (b) Western blot of whole cell lysates. Representative results. Fold change in Type I collagen (Cgn I) levels relative to control is shown at bottom. (c) Fibroblasts were transiently transfected with [SBE]4-luc reporter plasmids, and cell lysates were assayed for their luciferase activities. Results are mean ± SD of triplicate determinations. **p < 0.001 (d) Scratch assays were performed and the widths determined after 48 h. Results are mean ± SEM of triplicate determinations at three randomly selected sites. (e) 3D human skin equivalents populated with normal fibroblasts were incubated in media with ADP355 and TGF-β2 for 6 days. RNA was isolated for qPCR. Results are mean ± SD of triplicate determinations *p < 0.05, **p < 0.001. (f) SSc skin fibroblasts (n = 5) incubated with ADP355 for 24 h were immunostained with antibodies to αSMA (green) or type I collagen (Cgn1, red), or stained with DAPI (blue). Left panels, representative immunofluorescence photomicrographs (original magnification × 400). Right panels, immunofluorescence intensity. […]

[7] = system: 3D human skin equivalents populated with normal skin fibroblasts; experiment: 3D human skin equivalents, fibrotic responses (qPCR); format: cell-based; conditions: peptide 10 uM with TGF-β2 for 6 days
Protocol: Normal human skin fibroblasts (3 × 10^5cells) were mixed with rat tail Type I collagen (4 mg/ml, BD Biosciences, San Jose, CA) and seeded in 12-well plates, [60]. Epidermal keratinocytes (6 × 10^6 cells) were seeded on the collagen plugs. Forty-eight hours later, the 3D organotypic cultures were placed on metal grids (BD Biosciences) and maintained for 5 days at an air-medium interface. Peptides (10 uM) were then added in media with or without TGF-β, and incubations continued for a further six days. Experiments were harvested, and RNA was isolated for analysis.
as §2

SSc skin fibroblasts = experiment: Constitutive fibrotic gene expression in SSc fibroblasts; format: cell-based, human; conditions: unstimulated SSc fibroblasts (n = 5), ADP355 24 h, αSMA and type I collagen immunofluorescence
Protocol: (§6) Normal skin fibroblasts (10,000 cells/well) seeded in 8-well Lab-Tek II chamber glass slides (Nalge Nunc International, Naperville, IL) were incubated in media with indicated reagents. At the end of the experiments, cells were fixed, permeabilized, and incubated with primary antibodies to α-SMA (1:500, Sigma), phospho-FAK (pY397; 1:50, Abcam), vinculin (1:200, Abcam), Alexa Fluor 488 phalloidin (1:200, Invitrogen) or Type I collagen (1:100, Southern Biotech), followed by appropriate secondary antibodies conjugated to Alexa Fluor (Invitrogen), and evaluated under a Nikon C1Si confocal microscope.
as §4

[8] = system: phospho-AMP kinase (Thr172); experiment: AMPK phosphorylation in normal fibroblasts (immunofluorescence); format: cell-based, human; conditions: ADP355 60 min, confocal immunofluorescence
AMPK-null MEFs = experiment: Anti-fibrotic activity in AMPK-null MEFs (qPCR); format: cell-based; conditions: mouse embryonic fibroblasts, ADP355 24 h
Text: as §4, §2

p-FAK Y397 = experiment: FAK phosphorylation and focal adhesion complex assembly; format: cell-based, human; conditions: normal skin fibroblasts, pretreatment with ADP355
Protocol: as §6, §5

[9] = Ex vivo stability in serum; format: in vitro ADME; conditions: 30 min incubation with serum, intact peptide, data not shown
[10] = Tolerability of chronic treatment in mice; format: in vivo, mouse; conditions: 1 mg/kg/d i.p. for up to 28 days
Text: as §1

[11] = cited from earlier work
Text: as §3

[12] = system: AdipoR-positive cancer cell lines; conditions: cited from earlier work
Text: as §3

AdipoR = conditions: screening of 66 overlapping 10-amino acid peptides of the globular domain of adiponectin; cited from earlier work
Text: as §3

[13] = daily i.p. ADP355 initiated concurrently with BLM

In the case of “H-LYYFAYHITV-NH2 [ADP27, H-Leu-Tyr-Tyr-Phe-Ala-Tyr-His-Ile-Thr-Val-NH2]”, the “anti-fibrotic effects in mice compared with ADP355” value (C57BL6/J mice; mice treated with ADP27, Supplementary Fig. 9a,b) is reported as “Comparable anti-fibrotic effects”.

In the case of `c1cc(-c2cnn3cc(-c4ccc(OCCN5CCCCC5)cc4)cnc23)ccn1` [Compound C], the “effect on or relative to the anti-fibrotic activities of adiponectin” value [1] is given as “blocked”.

For `NC(=O)c1ncn([C@@H]2O[C@H](CO)[C@@H](O)[C@H]2O)c1N` [AICAR], the “effect on or relative to the anti-fibrotic activities of adiponectin” value [1] is listed as “mimicked”.

With `CCC[C@H](NC(=O)[C@@H]1CCCN1C(=O)[C@@H](NC(=O)[C@H](N)CC(N)=O)[C@@H](C)CC)C(=O)N[C@@H](CC(C)C)C(=O)N[C@@H](Cc1ccc(O)cc1)C(=O)N[C@H](CO)C(=O)N[C@@H](Cc1ccccc1)C(=O)N[C@@H](C)C(=O)N[C@H](CO)C(N)=O` [ADP355, H-DAsn-Ile-Pro-Nva-Leu-Tyr-DSer-Phe-Ala-DSer-NH2] (HELM PEPTIDE1{[dN].I.P.[Nva].L.Y.[dS].F.A.[dS].[am]}$$$$V2.0) the “inhibitory effects on fibrotic gene expression” value ([2]; adult skin fibroblasts, data not shown) was “Comparable inhibitory effects”, the “COL1A1, COL1A2, ASMA, and fibronectin (FN) gene expression induced by TGF-ß” value ([2]; neonatal skin fibroblasts, ADP355 10 μM preincubation then TGF-β2 24 h, qPCR and Western blot) was “potent abrogation” and the cell viability (skin fibroblasts [3]) was “No effects on cell viability”. For the same molecule, the binding to fibroblasts (skin fibroblasts [4]) was “Specific binding”, the “stimulation of [SBE]4-luc activity by TGF-ß” value [5] was “abrogated” and the “Smad2/3 phosphorylation elicited by TGF-ß” value (phospho-Smad2/3) was “partially reduced”. For the same molecule, the “stimulation of fibroblast migration” value [6] was “abrogated the stimulation of fibroblast migration”, the “fibrotic responses in 3D human skin equivalents” value [7] was “attenuated fibrotic responses” and the “constitutive fibrotic gene expression” value (SSc skin fibroblasts) was “mitigated constitutive fibrotic gene expression”. The AMPK phosphorylation [8] was “induced AMPK phosphorylation”, the “anti-fibrotic activity in AMPK-null MEFs” value (AMPK-null MEFs) was “failed to exert anti-fibrotic activity” and the “FAK activation and focal adhesion complex assembly augmented by TGF-ß” value (p-FAK Y397) was “substantially attenuated”. The “ex vivo stability in serum” value [9] was “excellent ex vivo stability, with detectable levels of intact peptide even after 30 min incubation with serum”, the “tolerability of chronic treatment” value [10] was “well tolerated, with no signs of toxicity” and the “skin fibrosis, low dose” value (C57BL6/J mice; 0.2 mg/kg/d, multiple independent experiments) was “Significant attenuation”. The “skin fibrosis, high dose” value (C57BL6/J mice; 1 mg/kg/d, multiple independent experiments) was “Significant attenuation”, the “dermal thickness, peptide by itself” value (C57BL6/J mice; ADP355 alone, without BLM) was “no significant effect” and the BLM-induced collagen accumulation (C57BL6/J mice; [13]) was “significantly mitigated”. For the same molecule, the “BLM-induced dWAT attrition” value (C57BL6/J mice; [13]) was “significantly mitigated”, the “BLM-induced increase in dermal thickness” value (C57BL6/J mice; daily i.p. ADP355 initiated concurrently with BLM (s.c. 14 d), continued for 21 d) was “significantly mitigated” and the “BLM-induced fibrotic gene expression” value (C57BL6/J mice; daily i.p. ADP355 initiated concurrently with BLM, qPCR of lesional skin) was “significantly mitigated”. For the same molecule, the established dermal fibrosis (C57BL6/J mice; treatment initiated at day 10 of BLM, data not shown) was “reversed established dermal fibrosis”, the “hypoadiponectinemia and loss of subcutaneous adipose tissue induced by HIV protease inhibitors” value [11] was “reverse” and the anti-tumor effects [12] was “anti-tumor effects”. For the same molecule, the AdipoR agonist activity (AdipoR) was “potent AdipoR agonist”.

B1: adiponectin: 30 kDa secreted adipokine abundant in the circulation (protein, UniProt Q15848 19-244, looked up)
Adiponectin: ETTTQGPGVLLPLPKGACTGWMAGIPGHPGHNGAPGRDGRDGTPGEKGEKGDPGLIGPKGDIGETGVPGAEGPRGFPGIQGRKGEPGEGAYVYRSAFSVGLETYVTIPNMPIRFTKIFYNQQNHYDGSTGKFHCNIPGLYYFAYHITVYMKDVKVSLFKKDKAMLFTYDQYQENNVDQASGSVLLHLEVGDQVWLQVYGEGERNGLYADNDNDSTFTGFLLYHDTN
In the case of B1, the half-life [11] is given as “relatively short half-life” and the solubility [11] is given as “extreme insolubility”.
